Data published in US9371336B2, “Compounds for treating spinal muscular atrophy” (PTC Therapeutics Inc., priority 2012, dated 2016).

Legend:
[1] = system: SMN2 minigene mRNA (SMN2-A minigene construct); test: SMN2 minigene mRNA splicing RT-qPCR assay in cultured cells; type: cell-based, human; conditions: Homo sapiens, HEK293-H; HEK293H cells stably transfected with SMN2-A minigene, 24 hours, 7-point concentration data; concentration giving 1.5-fold SMN2 full length mRNA relative to vehicle-treated cells; read-out: EC1.5x for production of full length SMN2 mRNA
Procedure: The reverse transcription-quantitative PCR-based (RT-qPCR) assay is used to quantify the level of the full length SMN2 minigene mRNA containing SMN2 exon 7 in a HEK293H cell line stably transfected with said minigene and treated with a test compound.
HEK293H cells stably transfected with the SMN2-A minigene construct described above (10,000 cells/well) are seeded in 200 μL of cell culture medium (DMEM plus 10% FBS, with 200 μg/mL hygromycin) in 96-well flat-bottom plates and the plate is immediately swirled to ensure proper dispersal of cells, forming an even monolayer of cells. Cells are allowed to attach for at least 4-6 hours. Test compounds are serially diluted 3.16-fold in 100% DMSO to generate a 7-point concentration curve. A solution of test compound (1 μL, 200× in DMSO) is added to each cell-containing well and the plate is incubated for 24 hours in a cell culture incubator (37° C., 5% CO2, 100% relative humidity). Two replicates are prepared for each test compound concentration. The cells are then lysed in Cells-To-Ct lysis buffer and the lysate is stored at −80° C.
Primer SMN Forward A (SEQ ID NO. 1) hybridizes to a nucleotide sequence in exon 7 (nucleotide 22 to nucleotide 40), primer SMN Reverse A (SEQ ID NO. 2) hybridizes to a nucleotide sequence in the coding sequence of Firefly luciferase, SMN Probe A (SEQ ID NO. 3) hybridizes to a nucleotide sequence in exon 7 (nucleotide 50 to nucleotide 54) and exon 8 (nucleotide 1 to nucleotide 21). The combination of these three oligonucleotides detects only SMN1 or SMN2 minigenes (RT-qPCR) and will not detect endogenous SMN1 or SMN2 genes.
The SMN forward and reverse primers are used at final concentrations of 0.4 μM. The SMN probe is used at a final concentration of 0.15 μM. The GAPDH primers are used at final concentrations of 0.2 μM and the probe at 0.15 μM.
The SMN2-minigene GAPDH mix (15 μL total volume) is prepared by combining 7.5 μL of 2×RT-PCR buffer, 0.4 μL of 25×RT-PCR enzyme mix, 0.75 μL of 20×GAPDH primer-probe mix, 4.0075 μL of water, 2 μL of 10-fold diluted cell lysate, 0.06 μL of 100 μM SMN forward primer, 0.06 μL of 100 μM SMN reverse primer, and 0.225 μL of 100 μM SMN probe.
PCR is carried out at the following temperatures for the indicated time: Step 1: 48° C. (15 min); Step 2: 95° C. (10 min); Step 3: 95° C. (15 sec); Step 4: 60° C. (1 min); then repeat Steps 3 and 4 for a total of 40 cycles.
Each reaction mixture contains both SMN2-A minigene and GAPDH primers/probe sets (multiplex design), allowing simultaneous measurement of the levels of two transcripts.
Two SMN spliced products are generated from the SMN2 minigene. The first spliced product containing exon 7, corresponding to SMN2 full length mRNA, is referred to herein using the term “SMN2 minigene FL.” The second spliced product lacking exon 7 is referred to herein using the term “SMN2 minigene Δ7.”
The increase of SMN2 minigene FL mRNA relative to that in cells treated with vehicle control is determined from real-time PCR data using a modified ΔΔCt method (as described in Livak and Schmittgen, Methods, 2001, 25:402-8). The amplification efficiency (E) is calculated from the slope of the amplification curve for SMN2 minigene FL and GAPDH individually. The abundances of SMN2 minigene FL and GAPDH are then calculated as (1+E)^−Ct, where Ct is the threshold value for each amplicon. The abundance of SMN2 minigene FL is normalized to GAPDH abundance. The normalized SMN2 minigene FL abundance from test compound-treated samples is then divided by normalized SMN2 minigene FL abundance from vehicle-treated cells to determine the level of SMN2 FL mRNA relative to vehicle control.

Smn protein = Smn protein assay (HTRF) in cultured cells (SMA patient fibroblasts GM03813); type: cell-based, human; conditions: 48 hours; for EC1.5x for Smn protein expression: SMA patient fibroblast cells (GM03813), HTRF, 7-point concentration data, concentration producing 1.5 times Smn protein vs DMSO vehicle control; for maximum fold (Fold) increase of Smn protein: SMA patient fibroblast cells, 7-point concentration curve, relative to vehicle control
Procedure: The Smn HTRF (homogeneous time resolved fluorescence) assay is used to quantify the level of Smn protein in SMA patient fibroblast cells treated with test compounds.
Cells are thawed and cultured in DMEM-10% FBS for 72 hours. Cells are trypsinized, counted and re-suspended to a concentration of 25,000 cells/mL in DMEM-10% FBS. The cell suspension is plated at 5,000 cells per well in a 96 well microtiter plate and incubated for 3 to 5 hours. […] Test compounds are serially diluted 3.16-fold in 100% DMSO to generate a 7-point concentration curve. 1 μL of test compound solution is transferred to cell-containing wells and cells are incubated for 48 hours in a cell culture incubator (37° C., 5% CO2, 100% relative humidity). Triplicate samples are set up for each test compound concentration. After 48 hours, the supernatant is removed from the wells and 25 μL of the RIPA lysis buffer, containing protease inhibitors, is added to the wells and incubated with shaking at room temperature for 1 hour. 25 μL of the diluent is added and then 35 μL of the resulting lysate is transferred to a 384-well plate, where each well contains 5 μL of the antibody solution (1:100 dilution of anti-SMN d2 and anti-SMN kryptate in SMN reconstitution buffer). The plate is centrifuged for 1 minute to bring the solution to the bottom of the wells, then incubated overnight at room temperature. Fluorescence for each well of the plate at 665 nm and 620 nm is measured on an EnVision multilabel plate reader (Perkin-Elmer).
The normalized fluorescence signal is calculated for each sample, Blank and vehicle control well by dividing the signal at 665 nm by the signal at 620 nm. Normalizing the signal accounts for possible fluorescence quenching due to the matrix effect of the lysate. The ΔF value (a measurement of Smn protein abundance as a percent value) for each sample well is calculated by subtracting the normalized average fluorescence for the Blank control wells from the normalized fluorescence for each sample well, then dividing this difference by the normalized average fluorescence for the Blank control wells and multiplying the resulting value by 100. The ΔF value for each sample well represents the Smn protein abundance from test compound-treated samples. The ΔF value for each sample well is divided by the ΔF value for the vehicle control wells to calculate the fold increase in Smn protein abundance relative to the vehicle control.

Structure (SMILES) | EC (1.5-fold) [1] | EC1.5x for Smn protein expression (Smn protein) | maximum fold (Fold) increase of Smn protein (Smn protein)
Cl.O=c1oc2nc(N3CCNCC3)ccc2cc1-c1nc2c(Cl)cccc2s1 [Cpd 2, 3-(4-chloro-1,3-benzothiazol-2-yl)-7-(piperazin-1-yl)-2H-pyrano[2,3-b]pyridin-2-one hydrochloride] | ≤ 0.1 µM | **** (an EC1.5×≦0.3 μM is indicated by four stars (****)) | ***** (a fold increase >1.65 is indicated by five stars (*****))
O=c1oc2nc(N3CCN(CCCl)CC3)ccc2cc1-c1nc2ccccc2s1 [Cpd 4, 3-(1,3-benzothiazol-2-yl)-7-[4-(2-chloroethyl)piperazin-1-yl]-2H-pyrano[2,3-b]pyridin-2-one] | 1 to 3 µM | – | ** (a fold increase between >1.2 and ≦1.35 is indicated by two stars (**))
CC(C)(C)OC(=O)N1CCN(c2cc3oc(=O)c(-c4nc5ccccc5s4)cc3cn2)CC1 [Cpd 7, tert-butyl 4-[3-(1,3-benzothiazol-2-yl)-2-oxo-2H-pyrano[3,2-c]pyridin-7-yl]piperazine-1-carboxylate] | 3 to 30 µM | – | * (A maximum fold increase ≦1.2 is indicated by one star (*))
CC(C)(C)OC(=O)N1CCN(c2cc3oc(=O)c(-c4nc5c(Cl)cccc5s4)cc3cn2)CC1 [Cpd 8, tert-butyl 4-[3-(4-chloro-1,3-benzothiazol-2-yl)-2-oxo-2H-pyrano[3,2-c]pyridin-7-yl]piperazine-1-carboxylate] | 3 to 30 µM | * (An EC1.5× for Smn protein expression between >3 μM and ≦10 μM is indicated by one star (*)) | ***** (a fold increase >1.65 is indicated by five stars (*****))
CN1CCN(c2cc3oc(=O)c(-c4nc5ccccc5s4)cc3cn2)CC1 [Cpd 14, 3-(1,3-benzothiazol-2-yl)-7-(4-methylpiperazin-1-yl)-2H-pyrano[3,2-c]pyridin-2-one] | 3 to 30 µM | – | * (A maximum fold increase ≦1.2 is indicated by one star (*))
Cl.O=c1oc2nc(N3CCNCC3)ccc2cc1-c1cn2ccccc2n1 [Cpd 28, 3-(imidazo[1,2-a]pyridin-2-yl)-7-(piperazin-1-yl)-2H-pyrano[2,3-b]pyridin-2-one hydrochloride] | 0.1 to 0.3 µM | – | *** (a fold increase between >1.35 and ≦1.5 is indicated by three stars (***))
Cc1ccc2nc(-c3cc4cnc(N5CCNCC5)cc4oc3=O)cn2c1 [Cpd 33, 3-(6-methylimidazo[1,2-a]pyridin-2-yl)-7-(piperazin-1-yl)-2H-pyrano[3,2-c]pyridin-2-one] | 1 to 3 µM | * (An EC1.5× for Smn protein expression between >3 μM and ≦10 μM is indicated by one star (*)) | *** (a fold increase between >1.35 and ≦1.5 is indicated by three stars (***))
Cc1cc(Cl)c2nc(-c3cc4cnc(N5CCNCC5)cc4oc3=O)cn2c1.Cl [Cpd 35, 3-(8-chloro-6-methylimidazo[1,2-a]pyridin-2-yl)-7-(piperazin-1-yl)-2H-pyrano[3,2-c]pyridin-2-one hydrochloride] | 3 to 30 µM | – | ** (a fold increase between >1.2 and ≦1.35 is indicated by two stars (**))
Cc1ccn2cc(-c3cc4cnc(N5CCNCC5)cc4oc3=O)nc2c1.Cl [Cpd 40, 3-(7-methylimidazo[1,2-a]pyridin-2-yl)-7-(piperazin-1-yl)-2H-pyrano[3,2-c]pyridin-2-one hydrochloride] | 0.3 to 1 µM | – | ** (a fold increase between >1.2 and ≦1.35 is indicated by two stars (**))
Cc1cn2cc(-c3cc4cnc(N5CCNCC5)cc4oc3=O)nc2s1.Cl [Cpd 41, 3-(2-methylimidazo[2,1-b][1,3]thiazol-6-yl)-7-(piperazin-1-yl)-2H-pyrano[3,2-c]pyridin-2-one hydrochloride] | 0.3 to 1 µM | – | ** (a fold increase between >1.2 and ≦1.35 is indicated by two stars (**))
Cc1ccn2nc(-c3cc4ccc(N5CCNCC5)nc4oc3=O)cc2c1.Cl [Cpd 43, 3-(5-methylpyrazolo[1,5-a]pyridin-2-yl)-7-(piperazin-1-yl)-2H-pyrano[2,3-b]pyridin-2-one hydrochloride] | 0.1 to 0.3 µM | **** (an EC1.5×≦0.3 μM is indicated by four stars (****)) | **** (a fold increase between >1.5 and ≦1.65 is indicated by four stars (****))
Cl.O=c1oc2nc(N3CCNCC3)ccc2cc1-c1cn2ccsc2n1 [Cpd 44, 3-(imidazo[2,1-b][1,3]thiazol-6-yl)-7-(piperazin-1-yl)-2H-pyrano[2,3-b]pyridin-2-one hydrochloride] | ≤ 0.1 µM | ** (an EC1.5× between >1 and ≦3 μM is indicated by two stars (**)) | *** (a fold increase between >1.35 and ≦1.5 is indicated by three stars (***))
Cc1ccn2cc(-c3cc4cnc(N5CCN(C)CC5)cc4oc3=O)nc2c1 [Cpd 57, 3-(7-methylimidazo[1,2-a]pyridin-2-yl)-7-(4-methylpiperazin-1-yl)-2H-pyrano[3,2-c]pyridin-2-one] | 0.3 to 1 µM | – | ** (a fold increase between >1.2 and ≦1.35 is indicated by two stars (**))
Cc1ccn2cc(-c3cc4ccc(N5CCN[C@@H](C)C5)nc4oc3=O)nc2c1 [Cpd 58, 3-(7-methylimidazo[1,2-a]pyridin-2-yl)-7-[(3S)-3-methylpiperazin-1-yl]-2H-pyrano[2,3-b]pyridin-2-one] | ≤ 0.1 µM | **** (an EC1.5×≦0.3 μM is indicated by four stars (****)) | **** (a fold increase between >1.5 and ≦1.65 is indicated by four stars (****))
